Four compounds from patent US20260116867A1, “PROTEOLYSIS TARGETING CHIMERAS FOR HUMAN PREGNANE X RECEPTOR AND FOR DEGRADATION OF GSPT1” (ST. JUDE CHILDREN'S RESEARCH HOSPITAL, priority 2022, published 2026) can be followed below.

Data set [1] deals with T1, PXR (Homo sapiens, UniProt O75469).
T1 sequence (O75469 1-434): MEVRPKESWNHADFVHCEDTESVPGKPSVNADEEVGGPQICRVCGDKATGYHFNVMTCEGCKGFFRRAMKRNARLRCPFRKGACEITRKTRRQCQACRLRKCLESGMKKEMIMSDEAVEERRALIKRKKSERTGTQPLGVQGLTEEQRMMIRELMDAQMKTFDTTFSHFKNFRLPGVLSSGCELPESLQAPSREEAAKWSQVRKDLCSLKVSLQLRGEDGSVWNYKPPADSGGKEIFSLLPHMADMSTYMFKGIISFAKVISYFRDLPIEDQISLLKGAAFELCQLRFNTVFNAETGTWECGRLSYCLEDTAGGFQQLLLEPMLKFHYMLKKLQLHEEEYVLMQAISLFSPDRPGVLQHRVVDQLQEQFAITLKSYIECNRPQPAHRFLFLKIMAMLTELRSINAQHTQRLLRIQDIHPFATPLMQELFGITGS
The data set is described as follows: cell-based hPXR agonistic assay. As to conditions: for Agonist (% activation at 10 μM): rifampicin at 10 μM as 100% activation, DMSO (0.3%) as 0%; for EC50: NA = no value within concentration range tested (highest 30 μM), read-out: Agonist (EC50/μM).

In data set [2] the target is T1, PXR. The data set is described as follows: hPXR binding assay. As to conditions: for inhibition at 10 µM: read-out: Binding (% inhibition at 10 μM).
The target in data set [3] is T1, PXR. As to the kind of experiment: cell-based hPXR antagonistic assay.
The target of the next data set is T2, HiBiT-FKBP12^F36V-PXR (Homo sapiens, UniProt O75469+P62942, F37V).
T2 construct: expressed in transfected cells; host or cells: HepG2 cells (transient, Lipofectamine 3000)
The data set is described as follows: HiBiT assay for degradation of overexpressed protein in HepG2 cells. The data set is classed as cell-based. As to conditions: FIG. 2C. How it is done: HepG2 cells (5×10^6 cells/dish) were plated in tissue culture-treated 10 cm dishes in 10 mL EMEM with 10% FBS. The next day, cells were transfected with 5 μg pcDNA3-HiBiT-FKBP^F36V-2xHA-PXR and either 5 μg pcDNA3 vector or 5 μg pcDNA3-HA-CRBN using Lipofectamine 3000 (Thermo Fisher Scientific). After 24 h, cells were trypsinized, resuspended in assay media, and plated in white tissue culture-treated 384-well plates (1.5×10^4 cells/well in 25 μL medium). […] The plates were incubated for 24 h, and the Nano-Glo HiBiT Lytic Detection System (Promega) and an EnVision microplate reader were used to measure HiBiT signal. Results are reported as fold change relative to DMSO control cells.
To establish a method for discovery of PXR degraders in the absence of a known PXR-degrading control, the degradation tag (dTAG) system was used. With this method, a protein of interest (PXR) is fused to a cytosolic prolyl isomerase, FKBP12, with Phe36 mutated to Val (FKBP12^F36V) (FIG. 2A). A PROTAC molecule, dTAG-13 (FIG. 2B), is then used to induce degradation of the fusion protein through recruitment of the CUL4-RBX1-DDB1-CRBN (CRL4^CRBN) E3 ubiquitin ligase, without affecting the cellular FKBP12 protein. An HA tag was added for western blot detection, and a HiBiT tag was fused to the N-terminus to allow high-throughput plate-based quantification of HiBiT-FKBP12^F36V-PXR protein levels (FIG. 2A). […] This was also observed when the HA tag was detected by western blot (FIG. 2D). The HiBiT detection was more sensitive to protein level changes than western blot, and, importantly, overexpression of CRBN was required to achieve dTAG-13-mediated degradation of the overexpressed HiBiT-FKBP12^F36V-PXR protein.
(In general: HiBiT is a short tag that completes a luciferase, so light tracks the accessible tagged protein.)

Data set [4] addresses T1, PXR. The data set is described as follows: Western blot of endogenous 3xFLAG-PXR protein in SNU—C4 3xFLAG-PXR KI cells. In kind it is cell-based. Set-up: To assess SJPYT-195 activity against endogenous PXR, CRISPR-Cas9 was used; endogenous in cells. The note with it: western blot, SNU—C4 3xFLAG-PXR KI cells. How it is done:
The following day, DMSO or compounds were added to result in 0.5% DMSO and the indicated compound concentrations, and cells were incubated for the indicated time points. Cells were lysed and subjected to western blotting as above using antibodies against FLAG (Sigma-Aldrich, cat. #F3165, 1:2,000 dilution), GSPT1 (Abcam, cat. #ab126090, 1:4,000 dilution), and R-Actin (Cell Signaling Technology, cat. #4967, 1:2,000 dilution).

Data set [5] relates to SNU—C4 3xFLAG-PXR KI cells. As to the kind of experiment: Cytotoxicity assay (CellTiter-Glo, 72 h). The data set is classed as cell-based, human. As to conditions: SNU—C4 3xFLAG-PXR KI cells, 72 h, FIG. 7A; read-out: half maximal cytotoxic concentration (CC50). How it is done: (§1) The indicated cells (2.5×10^3/well in 40 μL RPMI with 10% FBS) were plated in the 384-well plates, resulting in 0.5% DMSO and the indicated concentrations of chemicals. After 72 h compound treatment, the CellTiter-Glo Luminescent Cell Viability Assay (Promega) and an EnVision microplate reader were used to assess cytotoxicity. Wells containing DMSO alone or 10 μM staurosporine served as negative and positive controls, respectively. The percent cell viability for each well was calculated using equation 1: […]
(In ATP-based viability assays light output follows the ATP content of the culture.)

The subject of data set [6] is SNU—C4 3xFLAG-PXR KI cell lines stably expressing HA-tagged GSPT1^G575N. As to the kind of experiment: Cytotoxicity assay in cells overexpressing degradation-resistant GSPT1 mutant. In kind it is cell-based, human. As to conditions: FIG. 7B-C. How it is done:
Complete information for all plasmids is included in Table 1 below. […] Lentiviruses for pCDH-GSPT1 or pCDH-GSPT1^G575N were generated in 293T cells using psPAX2 and pMD2.G packaging vectors. The packaging vectors were gifts from Dr. Didier Trono (Addgene plasmid #12259 and 12260).
as §1

T2 sequence (P62942+O75469 fused P62942:F37V): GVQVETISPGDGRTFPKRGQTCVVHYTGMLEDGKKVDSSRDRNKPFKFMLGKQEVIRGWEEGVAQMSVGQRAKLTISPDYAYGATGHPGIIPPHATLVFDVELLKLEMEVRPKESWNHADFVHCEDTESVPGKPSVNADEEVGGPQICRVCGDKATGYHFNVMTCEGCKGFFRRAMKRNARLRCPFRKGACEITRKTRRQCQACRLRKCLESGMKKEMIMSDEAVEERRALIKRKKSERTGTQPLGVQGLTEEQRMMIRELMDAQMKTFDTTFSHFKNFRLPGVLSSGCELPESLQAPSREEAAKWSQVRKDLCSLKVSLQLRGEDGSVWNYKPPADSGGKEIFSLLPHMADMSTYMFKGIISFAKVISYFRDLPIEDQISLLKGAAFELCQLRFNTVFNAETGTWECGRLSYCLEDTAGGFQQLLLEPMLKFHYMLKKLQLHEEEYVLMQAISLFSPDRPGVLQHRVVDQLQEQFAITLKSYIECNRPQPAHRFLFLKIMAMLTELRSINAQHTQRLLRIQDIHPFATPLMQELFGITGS
T2 sequence (Q96SW2 whole entry partner): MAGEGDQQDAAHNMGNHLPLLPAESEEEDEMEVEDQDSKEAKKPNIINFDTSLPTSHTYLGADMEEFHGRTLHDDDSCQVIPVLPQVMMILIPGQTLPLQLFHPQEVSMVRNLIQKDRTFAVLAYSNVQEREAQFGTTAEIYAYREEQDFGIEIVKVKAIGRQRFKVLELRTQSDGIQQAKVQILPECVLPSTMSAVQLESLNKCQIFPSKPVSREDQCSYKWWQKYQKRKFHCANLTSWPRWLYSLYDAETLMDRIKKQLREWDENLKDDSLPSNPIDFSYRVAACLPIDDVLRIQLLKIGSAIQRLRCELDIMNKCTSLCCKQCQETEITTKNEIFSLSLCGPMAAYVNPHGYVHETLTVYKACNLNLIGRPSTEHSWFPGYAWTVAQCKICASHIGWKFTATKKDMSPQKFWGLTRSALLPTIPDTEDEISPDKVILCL

`COc1ccc(OC)c(-n2nnc(C(=O)Nc3cc(C(C)(C)C)ccc3OCCCCN3C(=O)CCC(N4Cc5c(N)cccc5C4=O)C3=O)c2C)c1` (stereo not drawn) [Compound N1, N-(2-(4-(3-(4-amino-1-oxoisoindolin-2-yl)-2,6-dioxopiperidin-1-yl)butoxy)-5-(tert-butyl)phenyl)-1-(2,5-dimethoxyphenyl)-5-methyl-1H-1,2,3-triazole-4-carboxamide]: at PXR [1], the “Agonist (% activation at 10 μM)” value is “(55 ± 5)%” and the EC50 was determined as 0.75 ± 0.11 µM. At PXR [2], the IC50 was 1.27 ± 0.48 µM and the inhibition (commonly the share of the control response that was lost under treatment) at 10 µM was 34%.

Regarding `COc1ccc(OC)c(-n2nnc(C(=O)Nc3cc(C(C)(C)C)ccc3OCCCCOc3cccc4c3C(=O)N(C3CCC(=O)NC3=O)C4=O)c2C)c1` (stereo not drawn) [Compound M12, N-(5-(tert-butyl)-2-(4-((2-(2,6-dioxopiperidin-3-yl)-1,3-dioxoisoindolin-4-yl)oxy)butoxy)phenyl)-1-(2,5-dimethoxyphenyl)-5-methyl-1H-1,2,3-triazole-4-carboxamide], at PXR [1], the “Agonist (% activation at 10 μM)” value is “(33 ± 1)%” and the EC50 amounted to 0.27 ± 0.078 µM. Further, on PXR [2], the IC50 came to 0.032 ± 0.002 µM and the inhibition at 10 µM turned out to be 56%. At PXR [3] (read-out: Antagonist (% inhibition at 10 μM)), the inhibition at 10 µM turned out to be 28%. The IC50 at PXR [3] (read-out: Antagonist (IC50/μM)) worked out at 0.67 ± 0.26 µM.

Take `CC[C@H](C(=O)N1CCCC[C@H]1C(=O)O[C@H](CCc1ccc(OC)c(OC)c1)c1ccccc1OCC(=O)NCCCCCCOc1cccc2c1C(=O)N(C1CCC(=O)NC1=O)C2=O)c1cc(OC)c(OC)c(OC)c1` (stereo partly drawn) [dTAG-13]: at HiBiT-FKBP12^F36V-PXR (HepG2 overexpressing HiBiT-FKBP12^F36V-PXR and CRBN), the “HiBiT signal, CRBN co-overexpressed” value is “potently reduced HiBiT signal”. Moreover, the “HiBiT signal, without CRBN co-overexpression” value at HiBiT-FKBP12^F36V-PXR (HepG2 overexpressing HiBiT-FKBP12^F36V-PXR) is recorded as “only a slight reduction in HiBiT signal”.

For `Cc1ccc(NC(=O)NCc2ccc3c(c2)CN(C2CCC(=O)NC2=O)C3=O)cc1Cl` (stereo not drawn) [CC-885, reference compound], the “PXR protein level (in words)” value on PXR [4] was “also reduced PXR protein”. For the same compound, the CC50 in data set [5] was 3.3 ± 0.3 nM. For the same compound, the “cytotoxicity in cells overexpressing GSPT1^G575N” value in data set [6] is “partially resistant”.
